# Data as given in the supplement of paper PMC10307832.
# How the values were obtained:
# Test in all cases: relative viability (nuclei count vs DMSO), 5 days (fraction); higher = more cells survive
# [1] = compound: O=C(C[C@H]1NCCC[C@@H]1O)Cn1cnc2cc(Br)c(Cl)cc2c1=O (racemic) [Halofuginone]
# How it was run: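 Five library-drug doses, separated by factors of √10, were pinned into 1536-well plates holding lung cancer cell lines after an overnight stay at 37 °C. Cells were fixed, permeabilised and Hoechst-stained in one step after 5 days without medium change, then imaged at 4×. Viability compares treated-well with vehicle-well nuclei, counted in MetaXpress, as a median across plates. Passing plates had control CV below 25% and at least one doubling.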
# [2] = compound: COc1cc2c(Oc3ccc4[nH]c(C)cc4c3F)ncnc2cc1OCCCN1CCCC1 [Cediranib] + Cc1nc(Nc2ncc(C(=O)Nc3c(C)cccc3Cl)s2)cc(N2CCN(CCO)CC2)n1 [Dasatinib] (partner 0.075 µM)
# How it was run: (§1)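 Relative viability divides the nuclei count in treated wells by that in vehicle wells. Lung cancer cell lines were seeded in 1536-well plates, dosed by pin tool the next day, and fixed and stained after 5 days in one step with final 0.05% Triton X-100, 1% formaldehyde and 1 ug/ml Hoechst. Dosing was a single drug or a fixed anchor-drug dose plus five library-drug doses (not always all listed) in √10 steps, and values are medians of duplicate plates imaged at 4×.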
# [3] = compound: Nc1ncn([C@H]2C[C@H](O)[C@@H](CO)O2)c(=O)n1 [Decitabine] + CC(=O)c1c(C)c2cnc(Nc3ccc(N4CCNCC4)cn3)nc2n(C2CCCC2)c1=O [Palbociclib] (partner 0.5 µM)
# How it was run: as §1
# [4] = compound: Nc1ncn([C@H]2C[C@H](O)[C@@H](CO)O2)c(=O)n1 [Decitabine] + CS(=O)(=O)N1CCN(Cc2cc3nc(-c4cccc5[nH]ncc45)nc(N4CCOCC4)c3s2)CC1 [Pictilisib] (partner 1 µM)
# How it was run: as §1
Cell Line,relative viability ([1]; 0.001 µM),relative viability ([1]; 0.003162 µM),relative viability ([1]; 0.01 µM),relative viability ([1]; 0.03162 µM),relative viability ([1]; 0.1 µM),relative viability ([2]; first compound 0.4 µM),relative viability ([2]; first compound 1.265 µM),relative viability ([2]; first compound 4 µM),relative viability ([3]; first compound 0.04 µM),relative viability ([3]; first compound 0.1265 µM),relative viability ([3]; first compound 0.4 µM),relative viability ([3]; first compound 1.265 µM),relative viability ([3]; first compound 4 µM),relative viability ([4]; first compound 0.04 µM),relative viability ([4]; first compound 0.1265 µM),relative viability ([4]; first compound 0.4 µM),relative viability ([4]; first compound 1.265 µM),relative viability ([4]; first compound 4 µM),relative viability ([2]; first compound 0.04 µM),relative viability ([2]; first compound 0.1265 µM)
NCI-H727,1.01,0.88,0.788,0.848,0.65,0.358,0.337,0.367,0.641,0.608,0.653,0.617,0.6,0.272,0.353,0.316,0.418,0.257,–,–
NCI-H358,0.994,0.892,0.705,0.341,0.142,0.194,0.137,0.173,0.179,0.118,0.114,0.13,0.135,0.315,0.335,0.352,0.313,0.25,0.174,0.239
NCI-H1437,0.976,1.02,1.01,0.984,0.845,0.445,0.385,0.399,0.343,0.321,0.247,0.265,0.28,0.455,0.408,0.287,0.172,0.166,0.455,0.543
NCI-H441,1.14,1.12,1.06,0.943,0.596,0.678,0.559,0.772,0.214,0.198,0.183,0.138,0.205,0.28,0.306,0.286,0.205,0.179,0.466,–
EMC-BAC-2,1.07,0.977,1.13,0.926,0.595,0.365,0.309,0.314,–,0.519,0.523,0.467,0.457,0.529,0.557,0.468,0.411,0.37,0.316,0.603
NCI-H647,1.11,0.971,0.905,0.815,0.599,0.102,0.22,0.224,0.269,0.489,0.236,0.123,0.117,0.504,0.566,0.42,0.191,0.214,0.215,0.177
CAL-12T,1.03,1.02,1.03,1.12,0.85,0.504,0.489,0.364,0.279,0.431,0.25,0.28,0.288,0.299,0.499,0.332,0.339,0.301,0.438,0.285
NCI-H1792,0.923,0.897,0.902,0.913,0.633,0.557,0.923,0.957,0.753,0.76,0.646,0.595,0.512,0.303,0.243,0.34,0.235,0.197,0.823,0.872
H3255,1.07,0.99,0.88,0.95,0.992,0.332,0.302,0.36,0.333,0.343,0.3,0.302,0.307,0.189,0.462,0.342,0.331,0.358,0.409,–
HCC-78,1.07,0.961,0.958,1.06,0.879,0.405,0.29,0.406,0.483,0.554,0.487,0.436,0.423,0.233,0.241,0.229,0.21,0.228,0.376,0.363
EBC-1,1.06,0.946,0.829,0.496,0.231,–,–,–,–,–,–,–,–,0.277,0.295,0.252,0.214,0.169,–,–
NCI-H2405,1.16,1.03,1.01,0.96,0.876,0.227,0.196,0.218,0.511,0.516,0.436,0.397,0.349,0.457,0.453,0.562,0.406,0.298,0.2,0.583
A549,1.03,0.972,0.975,0.766,0.385,–,–,–,–,–,–,–,–,0.444,0.49,0.37,0.256,0.166,–,–
NCI-H3122,1,0.984,0.968,0.941,0.95,0.731,0.542,0.897,0.2,0.213,0.183,0.181,0.191,0.64,0.564,0.399,0.571,0.517,0.901,0.694
NCI-H1563,1.02,1.06,0.885,0.664,0.486,0.498,0.513,0.492,–,–,–,–,–,0.682,0.63,0.779,0.693,0.635,0.494,0.897
HCC-44,0.988,0.98,0.972,0.953,0.8,–,–,–,1.01,0.935,0.808,0.761,0.873,0.537,0.71,0.353,0.412,0.372,–,–
PC-3 [JPC-3],1.06,1.04,1.01,1.09,0.982,0.966,1.04,0.909,–,0.572,0.496,0.493,0.511,–,0.733,0.434,0.609,0.646,1.09,1.1
NCI-H1993,1.23,0.978,0.893,1.11,0.749,0.537,0.434,0.649,0.646,0.589,0.645,0.503,0.583,0.866,0.973,0.788,0.9,0.725,0.567,0.702
LOU-NH91,1.03,0.929,0.98,1.06,0.912,0.51,0.495,0.552,0.514,0.592,0.588,0.507,0.415,0.518,0.478,0.517,0.518,0.495,0.522,0.78

Cell Line,relative viability ([1]; 0.001 µM),relative viability ([1]; 0.003162 µM),relative viability ([1]; 0.01 µM),relative viability ([1]; 0.03162 µM),relative viability ([1]; 0.1 µM),relative viability ([2]; first compound 0.4 µM),relative viability ([2]; first compound 1.265 µM),relative viability ([2]; first compound 4 µM),relative viability ([3]; first compound 0.04 µM),relative viability ([3]; first compound 0.1265 µM),relative viability ([3]; first compound 0.4 µM),relative viability ([3]; first compound 1.265 µM),relative viability ([3]; first compound 4 µM),relative viability ([4]; first compound 0.04 µM),relative viability ([4]; first compound 0.1265 µM),relative viability ([4]; first compound 0.4 µM),relative viability ([4]; first compound 1.265 µM),relative viability ([4]; first compound 4 µM),relative viability ([2]; first compound 0.04 µM),relative viability ([2]; first compound 0.1265 µM)
SW 900,0.911,0.888,0.664,1.02,0.569,0.594,0.654,0.524,0.457,0.506,0.314,0.305,0.348,–,–,–,–,–,0.629,0.669
LCLC-103H,0.992,1.05,0.994,0.96,0.945,0.413,0.511,0.5,0.429,0.49,0.444,0.442,0.501,0.638,0.669,0.526,0.655,0.647,0.594,0.578
NCI-H1915,0.957,1.13,0.959,0.998,0.943,0.305,0.324,0.345,0.328,0.209,0.22,0.194,0.192,0.814,0.662,0.387,0.295,0.304,0.279,0.305
IA-LM,0.995,0.94,0.944,0.862,0.354,–,–,–,–,–,–,–,–,0.253,0.269,0.163,0.147,0.0969,–,–
NCI-H1734,1,1.06,0.985,0.984,0.751,0.479,0.364,0.518,0.331,0.338,0.32,0.284,0.236,0.442,0.453,0.443,0.342,0.312,0.463,0.647
SK-MES-1,1.04,1.05,0.978,0.827,0.271,0.413,0.427,0.252,0.315,0.304,0.303,0.277,0.319,0.258,0.367,0.427,0.271,0.243,0.37,0.47
Calu-6,1.08,1.04,1,0.633,0.279,–,–,–,–,–,–,–,–,0.76,0.685,0.468,0.334,0.243,–,–
HCC-15,0.991,1.14,0.981,0.979,0.842,0.585,0.707,0.608,0.776,0.591,0.412,0.38,0.441,0.742,0.767,0.288,0.484,0.411,0.662,–
SK-LU-1,1.09,1.05,1.04,1.05,0.588,0.175,0.175,0.202,0.39,0.342,0.325,0.345,0.303,0.53,0.447,0.306,0.365,0.282,0.184,0.244
NCI-H2023,0.98,1.05,0.931,0.516,0.082,0.567,0.537,0.668,0.329,0.36,0.287,0.23,0.157,0.244,0.252,0.174,0.142,0.143,0.594,0.623
HCC-366,1.02,1.05,1,0.963,1.01,0.553,0.636,0.711,0.306,0.244,0.175,0.0803,0.0669,0.221,0.221,0.229,0.11,0.0886,0.649,0.622
NCI-H2342,1.07,0.956,0.961,0.963,0.95,0.288,0.295,0.327,0.641,0.54,0.548,0.463,0.508,–,–,–,–,–,0.334,0.392
NCI-H1299,1.06,1.06,0.999,0.979,0.886,–,–,–,–,–,–,–,–,0.836,0.881,0.829,0.619,0.505,–,–
NCI-H522,1.06,0.924,1.04,1.01,0.769,0.85,0.965,0.811,0.97,0.803,0.817,0.634,0.533,–,–,–,–,–,0.827,0.77
NCI-H1623,0.947,0.873,0.966,1.07,0.875,0.523,0.463,0.536,–,–,–,–,–,–,–,–,–,–,0.618,–
NCI-H596,1.01,0.965,1.13,0.882,0.549,0.548,–,0.618,–,–,–,–,–,0.38,0.416,0.304,0.358,0.633,0.67,0.616
NCI-H1648,1.12,0.809,1.06,0.951,1.13,–,–,–,0.275,0.246,0.296,0.287,0.31,–,–,–,–,–,–,–
NCI-H1703,0.931,0.994,0.886,0.668,0.519,–,–,–,–,–,–,–,–,0.29,0.258,0.196,0.234,0.181,–,–
